Experimental findings from patent US20250136584A1, “Benzimidazole Or Azabenzimidazole Compound, Preparation Method Therefor And Use Thereof” (Chengdu Di'Ao Jiuhong Pharmaceutical Factory, priority 2022, published 2025) are described below.

The target in data set [1] is GLP1R (Homo sapiens, UniProt P43220). Put plainly: Agonist activity on GLP1R/CRE-LUC HEK293 cells (luciferase reporter, ONE-Glo). The class given is cell-based. The settings on record: for EC50: GLP1R/CRE-LUC HEK293 cells, 6 hours incubation, chemiluminescence signal; for activity compared with comparative example compounds PF-06882961, DB02, DB03 and DB06: from Table 1, also much higher than DB04 and DB05. The protocol:
Logarithmically growing GLP1R/CRE-LUC HEK293 cells (purchased from Nanjing Cobioer) were digested, the digested cells were re-suspended in a DMEM+10% FBS culture medium, and a cell density was adjusted to be 3.5*10^5/mL. The cell solution was added into a 96-well cell culture plate by 100 µL/well, and the plate was cultured overnight in an incubator (37° C., 5% CO2).
A compound was dissolved with DMSO to prepare a storage solution at an initial concentration of 10 mM, an initial concentration of the small molecular compound was 0.2 mM, and the compound was diluted by 3 times and 10 points were diluted, while the 11th point was DMSO. Another 96-well plate was taken, added with 95 μL of cell culture solution (DMEM+10% FBS) in each well, then added with 5 μL of to-be-tested samples at different concentrations in each well, mixed evenly, and then added with 11 μL of to-be-tested samples at different concentrations in each well of the cell culture plate, and each sample had two wells. The culture plate was incubated in an incubator for 6 hours (37° C., […]). The 96-well cell culture plate was taken out, added with 100 μL of ONE-Glo™ reagent in each well, and incubated at room temperature for 10 minutes, and a chemiluminescence signal value was measured with an enzyme-labeled instrument. Data were processed and analyzed by Microsoft Excel and Graphpad Prism6 to obtain an EC50 value of the compound.
For orientation: A reporter such as luciferase makes a cellular process visible.

Data set [2] concerns the target T1, hERG potassium channel (Homo sapiens, UniProt Q12809).
T1 construct: host or cells: HEK-293 stably expressing hERG
As to the kind of experiment: hERG test, patch clamp on HEK-293 cells stably expressing hERG potassium channel. The class given is cell-based. The settings on record: HEK-293 cell line stably expressing hERG, read-out: IC50 (μM) of inhibitory effect on hERG potassium channel current. As to the method:
Test object: influences of compounds on an hERG potassium channel current were tested by a full-automatic patch clamp method.
• (1) An HEK-293 cell line stably expressing an hERG potassium channel was adopted, and hERG potassium channel cells were purchased from Creacell Company. • (2) The HEK-293 cell line stably expressing the hERG potassium channel was cultured in a DMEM culture medium containing 10% fetal bovine serum and 0.8 mg/mL G418 at 37° C. under a carbon dioxide concentration of 5%. • (3) Cell passage: the old culture medium was removed, and the cells were washed once with PBS, then added with 1 mL of TrypLE™ Express solution, and incubated at 37° C. for about 0.5 minutes. When the cells were separated from a dish bottom, about 5 mL of complete culture medium preheated at 37° C. was added. A cell suspension was gently blown with a straw to separate the aggregated cells. The cell suspension was transferred to a sterile centrifuge tube and centrifuged at 1000 rpm for 5 minutes to collect the cells. In amplification or maintenance of culture, the cells were inoculated into a 6 cm cell culture dish, and the number of cells inoculated into each cell culture dish was 2.5×10^5 cells (final volume: 5 mL). In order to maintain an electrophysiological activity of cells, a cell density should not exceed 80%. • (4) In patch clamp detection, before the test, the cells were separated by TrypLE™ Express, and 4×10^3 cells were spread on a cover slip and cultured in a 24-well plate (final volume: 500 μL). After 18 hours, the test was carried out for detection. Data analysis:
A current after an effect of each drug concentration and a blank control current
were standardized first, and then an inhibition rate
corresponding to each drug concentration was calculated. A mean number and a standard error were calculated for each concentration, and a semi-inhibitory concentration of each compound was calculated by the following equation: […]
A dosage-dependent effect was nonlinearly fitted by the above equation, wherein C represented a concentration of a test sample, IC50 represented a semi-inhibitory concentration, and h represented a Hill coefficient. Curve fitting and IC50 calculation were completed by IGOR software.
Background: The hERG channel carries a current that helps repolarise heart muscle cells.

The subject of data set [3] is hGLP1R mice. As to the kind of experiment: Glucose tolerance test in hGLP1R mice after single oral administration. The class given is in vivo. The note with it: 1 mg/kg oral once; for blood glucose reduction effect compared with PF-06882961: glucose 2 g/kg i.p. 60 minutes later; for onset of blood glucose reduction compared with comparative example compound DB03 / blood glucose reduction effect compared with comparative example compound DB03: FIG. 3 and FIG. 4. As to the method: Genetically engineered hGLP1R mice, male, purchased from Biocytogen Jiangsu Gene Biotechnology Co., Ltd., were fasted overnight before the glucose tolerance test (IPTGG), without water deprivation. A solvent or corresponding compound was orally administered once, a glucose solution (2 g/kg) was intraperitoneally injected 60 minutes after administration, and a blood glucose value before administration of glucose (equivalent to a blood glucose value of 0 minute) and blood glucose values 15 minutes, 30 minutes, 60 minutes and 120 minutes after administration of glucose were measured. The solvent was 5% DMSO+40% PEG400+55% physiological saline, and a dosage of the compound was 1 mg/kg (n=3).

A short description of data set [4]: Pharmacokinetic studies in SD rats. The settings on record: Sprague-Dawley (SD), rat, plasma. In kind it is in vivo.
Setting [5] is: blood glucose curves and AUC (0 to 120 minutes).

Sequence of GLP1R (P43220 24-463): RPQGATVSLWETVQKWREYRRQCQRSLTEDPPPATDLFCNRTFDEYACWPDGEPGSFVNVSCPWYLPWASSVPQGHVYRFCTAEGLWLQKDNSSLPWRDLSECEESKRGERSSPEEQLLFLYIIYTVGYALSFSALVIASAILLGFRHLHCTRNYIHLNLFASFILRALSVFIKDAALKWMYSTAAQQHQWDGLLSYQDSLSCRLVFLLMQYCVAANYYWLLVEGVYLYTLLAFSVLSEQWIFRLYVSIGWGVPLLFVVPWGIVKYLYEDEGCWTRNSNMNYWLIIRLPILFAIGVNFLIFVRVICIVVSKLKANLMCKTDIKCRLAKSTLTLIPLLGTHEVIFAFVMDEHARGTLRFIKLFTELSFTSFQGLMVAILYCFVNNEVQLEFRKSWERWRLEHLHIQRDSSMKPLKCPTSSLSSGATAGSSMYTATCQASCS
T1 sequence (Q12809 whole entry): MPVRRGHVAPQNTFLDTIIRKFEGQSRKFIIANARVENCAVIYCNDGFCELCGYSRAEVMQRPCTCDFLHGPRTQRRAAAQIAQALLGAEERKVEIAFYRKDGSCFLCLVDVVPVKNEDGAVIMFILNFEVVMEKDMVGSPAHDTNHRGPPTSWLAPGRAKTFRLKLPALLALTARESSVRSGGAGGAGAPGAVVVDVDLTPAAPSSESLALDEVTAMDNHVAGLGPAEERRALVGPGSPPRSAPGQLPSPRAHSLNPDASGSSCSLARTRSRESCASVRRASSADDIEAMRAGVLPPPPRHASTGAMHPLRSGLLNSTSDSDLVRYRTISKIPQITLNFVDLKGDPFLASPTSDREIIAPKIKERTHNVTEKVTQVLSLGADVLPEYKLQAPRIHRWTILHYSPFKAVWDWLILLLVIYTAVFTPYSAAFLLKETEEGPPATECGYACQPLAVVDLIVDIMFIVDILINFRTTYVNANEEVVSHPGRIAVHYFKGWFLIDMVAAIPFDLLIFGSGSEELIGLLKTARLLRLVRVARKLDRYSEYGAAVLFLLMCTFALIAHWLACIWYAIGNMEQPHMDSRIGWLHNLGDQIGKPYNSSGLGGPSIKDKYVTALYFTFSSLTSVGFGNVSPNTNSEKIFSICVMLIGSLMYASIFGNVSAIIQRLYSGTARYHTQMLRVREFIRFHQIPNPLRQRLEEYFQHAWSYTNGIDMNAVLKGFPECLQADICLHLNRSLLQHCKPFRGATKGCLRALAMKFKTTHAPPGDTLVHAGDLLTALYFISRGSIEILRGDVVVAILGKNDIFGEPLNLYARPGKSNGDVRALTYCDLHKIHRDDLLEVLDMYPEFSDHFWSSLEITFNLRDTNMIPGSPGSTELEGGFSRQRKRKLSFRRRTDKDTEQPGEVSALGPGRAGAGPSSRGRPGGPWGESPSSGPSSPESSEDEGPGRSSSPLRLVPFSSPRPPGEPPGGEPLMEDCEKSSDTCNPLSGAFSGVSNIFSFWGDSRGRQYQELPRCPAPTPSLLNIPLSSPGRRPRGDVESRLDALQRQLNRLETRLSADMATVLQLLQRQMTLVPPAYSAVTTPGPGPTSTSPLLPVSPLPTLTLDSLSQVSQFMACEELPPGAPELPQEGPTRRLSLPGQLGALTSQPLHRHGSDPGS

The EC50 is the concentration at which the effect is half-maximal. Broadly, the IC50 is the concentration needed to halve the response being measured. Turning to `O=C(O)c1ccc2nc(CC3CC=C(c4cccc(OCc5ccc(Cl)c6ccoc56)n4)CC3)n(C[C@@H]3CCO3)c2c1` (stereo partly drawn) [Compound 7], in data set [1], it took 20.9 nM to reach a half-maximal effect (EC50). Besides, the IC50 in data set [2] was over 30 µM.

Usually half-life stands for how long it takes for the measured level to halve. Higher therefore signals slow loss. On to `O=C(O)c1ccc2nc(Cc3ccc(-c4cccc(OCc5ccc(Cl)c6cc(Cl)oc56)n4)cc3F)n(C[C@@H]3CCO3)c2c1` [Compound 99], for which, in data set [3] (setting [5]), the “blood glucose reduction effect compared with PF-06882961” value is “significantly better”. Besides, in data set [2], the IC50 was over 30 µM. The half-life in data set [4] was 360 to 600 min.

For the molecule `O=C(O)c1ccc2nc(Cc3ccc(-c4ccc(F)c(OCc5ccc(F)c6cc(Cl)oc56)n4)cc3F)n(C[C@@H]3CCO3)c2c1` [Compound 104], in data set [1], the response was half-maximal at 1.76 nM (EC50); the “activity compared with comparative example compounds PF-06882961, DB02, DB03 and DB06” value is on record as “higher”. For the same molecule, the IC50 in data set [2] is over 30 µM.

Regarding `O=C(O)c1ccc2nc(Cc3ccc(-c4ccc(F)c(OCc5ccc(Cl)c6ccoc56)n4)cc3F)n(C[C@@H]3CCO3)c2c1` [Compound 93], in data set [1], the EC50 was 2.89 nM; the “activity compared with comparative example compounds PF-06882961, DB02, DB03 and DB06” value was “higher”. Moreover, the “onset of blood glucose reduction compared with comparative example compound DB03” value in data set [3] is listed as “took effect more quickly”. In addition, in data set [3] (setting [5]), the “blood glucose reduction effect compared with PF-06882961” value was “significantly better” and the “blood glucose reduction effect compared with comparative example compound DB03” value is on record as “absolutely better”. Also, in data set [2], the IC50 was over 30 µM. In data set [4], this molecule came in with a half-life of 360 to 600 min.

In the case of `O=C(O)c1ccc2nc(Cc3ccc(-c4ccc(F)c(OCc5ccc(Cl)c6cc(Cl)oc56)n4)cc3F)n(C[C@@H]3CCO3)c2c1` [Compound 100], in data set [1], the EC50 was 2.02 nM; the “activity compared with comparative example compounds PF-06882961, DB02, DB03 and DB06” value was “higher”. For the same molecule, the “onset of blood glucose reduction compared with comparative example compound DB03” value in data set [3] is on record as “took effect more quickly”. For the same molecule, in data set [3] (setting [5]), the “blood glucose reduction effect compared with PF-06882961” value is reported as “significantly better” and the “blood glucose reduction effect compared with comparative example compound DB03” value is reported as “absolutely better”. Further, the half-maximal inhibitory concentration (IC50) in data set [2] was over 30 µM. In addition, the half-life in data set [4] lay within 360 to 600 min.

With `O=C(O)c1ccc2nc(Cc3ccc(-c4cccc(OCc5ccc(Cl)c6cc(F)oc56)n4)cc3F)n(C[C@@H]3CCO3)c2c1` [Compound 21], in data set [1], the EC50 amounted to 0.96 nM; the “activity compared with comparative example compounds PF-06882961, DB02, DB03 and DB06” value is on record as “higher”. The “blood glucose reduction effect compared with PF-06882961” value in data set [3] (setting [5]) was “significantly better”. Besides, in data set [2], the IC50 is over 30 µM. The same molecule displayed a half-life in data set [4] of 360 to 600 min.

Turning to `O=C(O)c1ccc2nc(Cc3ccc(-c4cccc(OCc5ccc(Cl)cc5F)n4)cc3F)n(C[C@@H]3CCO3)c2c1` [DB03, reference compound], in data set [2], the IC50 is over 10 µM. This molecule had a half-life in data set [4] of 176 min.

For the molecule `O=C(O)c1ccc2nc(Cc3ccc(-c4cccc(OCc5ccc(Cl)c6ccoc56)n4)cc3F)n(C[C@@H]3CCO3)c2c1` [Compound 17], the “onset of blood glucose reduction compared with comparative example compound DB05” value in data set [3] (FIG. 1 and FIG. 2) is “took effect more quickly”. Moreover, in data set [3], the “onset of blood glucose reduction compared with comparative example compound DB03” value was “took effect more quickly”. Besides, in data set [3] (setting [5]), the “blood glucose reduction effect compared with PF-06882961” value is given as “significantly better” and the “blood glucose reduction effect compared with comparative example compound DB03” value was “absolutely better”. Further, in data set [3] (blood glucose curves and AUC (0 to 120 minutes), FIG. 1 and FIG. 2), the “blood glucose reduction effect compared with comparative example compound DB05” value is recorded as “significantly better”. In addition, in data set [2], the IC50 is over 30 µM.

`N#Cc1ccc(COc2cccc(C3CCN(Cc4nc5ccc(C(=O)O)cc5n4C[C@@H]4CCO4)CC3)n2)c(F)c1` [PF-06882961, reference compound]: the IC50 in data set [2] was found to be 9.35 µM. In addition, the half-life in data set [4] was 188 min.

On to `O=C(O)c1ccc2nc(Cc3ccc(-c4ccc(F)c(OCc5ccc(Cl)c6cc(F)oc56)n4)cc3F)n(C[C@@H]3CCO3)c2c1` [Compound 94], for which, in data set [1], the EC50 was 0.89 nM; the “activity compared with comparative example compounds PF-06882961, DB02, DB03 and DB06” value is given as “higher”. Also, in data set [3] (setting [5]), the “blood glucose reduction effect compared with PF-06882961” value is “significantly better”. Also, the IC50 in data set [2] was over 30 µM. In data set [4], this molecule returned a half-life of 360 to 600 min.
